Among the data in patent US7964624B1, “Inhibitors of serine proteases” (priority 2005, dated 2011) are Ki values, retold here.

Where only a bound is given, the exact number is not on record here.

One experiment concerns the target T1, full-length hepatitis C viral protein NS3•4A (Hepatitis C virus genotype 1a, UniProt P27958).
T1 construct: hexa-histidine (N); made in house; host or cells: Sf9 insect cells (baculovirus, pVL1392)
Put plainly: biochemical. On the set-up: species or system HCV sub-type strain 1a. The settings on record: Enzyme Assay 2 (HCV NS3 Peptide Cleavage Assay) activity, apparent Ki class.
As for `CNC(=O)C(=O)C(CC1CC1)NC(=O)[C@@H]1C[C@]2(CC(c3cc(C)c(OC)c(C)c3)=NO2)CN1C(=O)[C@@H](NC(=O)OC1CCCC1)C(C)(C)C` (stereo partly shown) [Compound 768], the Ki lay within 100 to 500 nM.

In the case of `COc1c(C)cc(C2=NO[C@]3(C2)C[C@@H](C(=O)NC(CC2CC2)C(=O)C(N)=O)N(C(=O)[C@@H](NC(=O)OC2CCCC2)C(C)(C)C)C3)cc1C` (stereo partly shown) [Compound 769], the Ki fell in the range of 100 to 500 nM.

For `CCC[C@H](NC(=O)[C@@H]1C[C@]2(CC(c3ccc(NC)c(Cl)c3)=NO2)CN1C(=O)[C@@H](NC(=O)CC1CCCCC1)C(C)(C)C)C(=O)C(=O)NC1CC1` [Compound 771], the Ki is less than 100 nM.

For `CCC[C@H](NC(=O)[C@@H]1C[C@]2(CC(c3cccc(Cl)c3)=NO2)CN1C(=O)[C@@H](NC(=O)CC(C)(C)OC)C(C)(C)C)C(=O)C(=O)NC1CC1` [Compound 772], the Ki was less than 100 nM.

`CNC(=O)C(=O)[C@H](CC1CC1)NC(=O)[C@@H]1C[C@]2(CC(c3cccc(Cl)c3)=NO2)CN1C(=O)[C@@H](NC(=O)CC(C)(C)OC)C(C)(C)C` [Compound 773]: the Ki lay in the range of 100 to 500 nM.

For `CCC[C@H](NC(=O)[C@@H]1C[C@]2(CC(c3cccc(Cl)c3)=NO2)CN1C(=O)[C@@H](NC(=O)CC1CC2CCC1C2)C(C)(C)C)C(=O)C(N)=O` (stereo partly shown) [Compound 779], the Ki was less than 100 nM.

Take `CCC[C@H](NC(=O)[C@@H]1C[C@]2(CC(c3cc(C)c(OCC)c(Cl)c3)=NO2)CN1C(=O)[C@@H](NC(=O)OC1CCCC1)C(C)(C)C)C(=O)C(=O)NC` [Compound 785]: the Ki is less than 100 nM.

Consider `CCC[C@H](NC(=O)[C@@H]1C[C@]2(CC(c3cccc(Cl)n3)=NO2)CN1C(=O)[C@@H](NC(=O)CC1CCCCC1)C(C)(C)C)C(=O)C(=O)NC1CC1` [Compound 786], for which the Ki was in the range of 100 to 500 nM.

As to `CNC(=O)C(=O)[C@H](CC1CC1)NC(=O)[C@@H]1C[C@]2(CC(c3cc(C)c(OC)c(C)c3)=NO2)CN1C(=O)[C@@H](NC(=O)CC1CCCCC1)C(C)(C)OC` [Compound 788], the Ki was less than 100 nM.

Still in this experiment, the particulars now being: Enzyme Assay 2, HCV NS3 Peptide Cleavage Assay, apparent Ki.
For `CNC(=O)C(=O)[C@H](CC1CC1)NC(=O)[C@@H]1C[C@]2(CC(c3cc(C)c(OC)c(C)c3)=NO2)CN1C(=O)[C@@H](NC(=O)[C@@H]1CC1c1ccccc1)C(C)(C)C` (stereo partly shown) [Compound 798], the Ki is less than 100 nM.

For the compound `CCC[C@H](NC(=O)[C@@H]1C[C@]2(CC(c3cc(Cl)c(OC)cc3OC)=NO2)CN1C(=O)[C@@H](NC(=O)[C@@H]1CC1c1ccccc1)C(C)(C)C)C(=O)C(N)=O` (stereo partly shown) [Compound 801], the Ki is less than 100 nM.

`CCC[C@H](NC(=O)[C@@H]1C[C@]2(CC(c3cc(Cl)ccc3N(C)C)=NO2)CN1C(=O)[C@@H](NC(=O)CC1CCCCC1)C(C)(C)C)C(=O)C(=O)NC1CC1` [Compound 803]: the Ki was in the range of 100 to 500 nM.

In the case of `CC(C)(C)[C@H](NC(=O)[C@H]1C[C@@H]1c1ccccc1)C(=O)N1C[C@@]2(CC(c3cccc4cccnc34)=NO2)C[C@H]1C(=O)N[C@@H](CC1CC1)C(=O)C(N)=O` [Compound 805], the Ki was less than 100 nM.

For `CC(C)(C)[C@H](NC(=O)[C@@H]1C[C@H]1c1ccccc1)C(=O)N1C[C@@]2(CC(c3cccc4cccnc34)=NO2)C[C@H]1C(=O)N[C@@H](CC1CC1)C(=O)C(N)=O` [Compound 806], the Ki is less than 100 nM.

In the case of `CNC(=O)C(=O)[C@H](CC1CC1)NC(=O)[C@@H]1C[C@]2(CC(c3cccc4cccnc34)=NO2)CN1C(=O)[C@@H](NC(=O)[C@H]1C[C@@H]1c1ccccc1)C(C)(C)C` [Compound 807], the Ki lay within 100 to 500 nM.

As for `COc1c(C)cc(C2=NO[C@]3(C2)C[C@@H](C(=O)N[C@@H](CC2CC2)C(=O)C(N)=O)N(C(=O)[C@@H](NC(=O)[C@@H]2C[C@H]2c2ccccc2)C(C)(C)C)C3)cc1Cl` [Compound 811], the Ki was less than 100 nM.

Regarding `CCOc1c(C)cc(C2=NO[C@]3(C2)C[C@@H](C(=O)N[C@@H](CC2CC2)C(=O)C(=O)NC)N(C(=O)[C@@H](NC(=O)OC2CCCC2)C(C)(C)C)C3)cc1Cl` [Compound 817], the Ki was less than 100 nM.

With `CCC[C@H](NC(=O)[C@@H]1C[C@]2(CC(c3cc(Cl)c(OCC)cc3OC)=NO2)CN1C(=O)[C@@H](NC(=O)CC1CCCCC1)C(C)(C)C)C(=O)C(=O)NC1CC1` [Compound 818], the Ki is less than 100 nM.

Turning to `CCC[C@H](NC(=O)[C@@H]1C[C@]2(CC(c3cc(Cl)c(C)cc3OC)=NO2)CN1C(=O)[C@@H](NC(=O)CC1CCCCC1)C(C)(C)C)C(=O)C(=O)NC1CC1` [Compound 820], the Ki was less than 100 nM.

For `CCC[C@H](NC(=O)[C@@H]1C[C@]2(CC(c3cccc(Cl)c3)=NO2)CN1C(=O)[C@@H](NC(=O)C1(C#N)CC1)C(C)(C)C)C(=O)C(=O)NC1CC1` [Compound 823], the Ki was less than 100 nM.

For `CCC[C@H](NC(=O)[C@@H]1C[C@]2(CC(c3cccc(Cl)c3)=NO2)CN1C(=O)[C@@H](NC(=O)[C@H]1CC12CCOCC2)C(C)(C)C)C(=O)C(=O)NC1CC1` [Compound 826], the Ki was less than 100 nM.

Regarding `CCC[C@H](NC(=O)[C@@H]1C[C@]2(CC(c3cc(C)c(OCC)c(C)c3)=NO2)CN1C(=O)[C@@H](NC(=O)[C@@H]1C[C@H]1c1ccccc1)C(C)(C)C)C(=O)C(=O)NC` [Compound 828], the Ki is less than 100 nM.

With `CNC(=O)C(=O)[C@H](CC1CC1)NC(=O)[C@@H]1C[C@]2(CC(c3cccc(Cl)c3)=NO2)CN1C(=O)[C@@H](NC(=O)[C@@H]1C[C@H]1c1c[nH]cn1)C(C)(C)C` [Compound 832], the Ki fell in the range of 100 to 500 nM.

As for `CNC(=O)C(=O)[C@H](CC1CC1)NC(=O)[C@@H]1C[C@]2(CC(c3cccc(Cl)c3)=NO2)CN1C(=O)[C@@H](NC(=O)[C@H]1C[C@@H]1c1c[nH]cn1)C(C)(C)C` [Compound 833], the Ki was less than 100 nM.

`CCNC(=O)C(=O)[C@H](CC1CC1)NC(=O)[C@@H]1C[C@]2(CC(c3cccc(Cl)c3)=NO2)CN1C(=O)[C@@H](NC(=O)CC1CCCCC1)C(C)(C)C` [Compound 836]: the Ki is less than 100 nM.

Turning to `CCNC(=O)C(=O)[C@H](CC1CC1)NC(=O)[C@@H]1C[C@]2(CC(c3cc(C)c(OC)c(C)c3)=NO2)CN1C(=O)[C@@H](NC(=O)[C@@H]1CC1c1ccccc1)C(C)(C)C` (stereo partly shown) [Compound 845], the Ki is less than 100 nM.

Take `CNC(=O)C(=O)[C@H](CC1CC1)NC(=O)[C@@H]1C[C@]2(CC(c3cccc(Cl)c3)=NO2)CN1C(=O)[C@@H](NC(=O)[C@@H]1CC12CCCCC2)C(C)(C)C` [Compound 850]: the Ki was less than 100 nM.

In the case of `CNC(=O)C(=O)[C@H](CC1CC1)NC(=O)[C@@H]1C[C@]2(CC(c3cccc(Cl)c3)=NO2)CN1C(=O)[C@@H](NC(=O)OC1CCC1)C(C)(C)C` [Compound 851], the Ki is less than 100 nM.

Turning to `CCNC(=O)C(=O)[C@H](CC1CC1)NC(=O)[C@@H]1C[C@]2(CC(c3cc(C)c(OC)c(Cl)c3)=NO2)CN1C(=O)[C@@H](NC(=O)[C@@H]1C[C@H]1c1ccccc1)C(C)(C)C` [Compound 856], the Ki is less than 100 nM.

`CCC[C@H](NC(=O)[C@@H]1C[C@]2(CC(c3cc(C)c(OCC)c(C)c3)=NO2)CN1C(=O)[C@@H](NC(=O)OC1CCCC1)C(C)(C)C)C(=O)C(=O)NC1CC1` [Compound 860]: the Ki is less than 100 nM.

On to `CNC(=O)C(=O)[C@H](CC1CC1)NC(=O)[C@@H]1C[C@]2(CC(c3cccc(Cl)c3)=NO2)CN1C(=O)[C@@H](NC(=O)[C@@H]1C[C@H]1c1ccccc1OC)C(C)(C)C` [Compound 867], for which the Ki is less than 100 nM.

On to `CNC(=O)C(=O)[C@H](CC1CC1)NC(=O)[C@@H]1C[C@]2(CC(c3cccc(Cl)c3)=NO2)CN1C(=O)[C@@H](NC(=O)[C@@H]1C[C@H]1c1ccccn1)C(C)(C)C` [Compound 869], for which the Ki was less than 100 nM.

Take `CCC[C@H](NC(=O)[C@@H]1C[C@]2(CC(c3cc(C)c(OC)cc3OC)=NO2)CN1C(=O)[C@@H](NC(=O)[C@@H]1C[C@H]1c1ccccc1)C(C)(C)C)C(=O)C(=O)NC1CC1` [Compound 875]: the Ki is less than 100 nM.

`CNC(=O)C(=O)[C@H](CC1CC1)NC(=O)[C@@H]1C[C@]2(CC(c3cccc(Cl)c3)=NO2)CN1C(=O)[C@@H](NC(=O)[C@@H]1C[C@H]1c1cccnc1)C(C)(C)C` [Compound 885]: the Ki is 100 to 500 nM.

As to `CNC(=O)C(=O)[C@H](CC1CC1)NC(=O)[C@@H]1C[C@]2(CC(c3cccc(Cl)c3)=NO2)CN1C(=O)[C@@H](NC(=O)[C@@H]1C[C@@H]1c1ccccn1)C(C)(C)C` [Compound 886], the Ki is less than 100 nM.

For the compound `CNC(=O)C(=O)[C@H](CC1CC1)NC(=O)[C@@H]1C[C@]2(CC(c3cccc(Cl)c3)=NO2)CN1C(=O)[C@@H](NC(=O)[C@H]1C[C@H]1c1ccccc1)C(C)(C)C` [Compound 887], the Ki lay within 100 to 500 nM.

As for `CCNC(=O)C(=O)[C@H](CC1CC1)NC(=O)[C@@H]1C[C@]2(CC(c3cc(Cl)c(OC)cc3OC)=NO2)CN1C(=O)[C@@H](NC(=O)C1CC1)C(C)(C)C` [Compound 896], the Ki was less than 100 nM.

With `CCC[C@H](NC(=O)[C@@H]1C[C@]2(CC(c3cccc(Cl)c3)=NO2)CN1C(=O)[C@@H](NC(=O)[C@@H]1C[C@H]1C(C)C)C(C)(C)C)C(=O)C(=O)NC1CC1` [Compound 897], the Ki was less than 100 nM.

For `COc1ccc(Cl)cc1C1=NO[C@]2(C1)C[C@@H](C(=O)N[C@@H](CC1CC1)C(=O)C(N)=O)N(C(=O)[C@@H](NC(=O)[C@@H]1C[C@H]1c1ccccc1)C(C)(C)C)C2` [Compound 901], the Ki was less than 100 nM.

As to `CNC(=O)C(=O)[C@H](CC1CC1)NC(=O)[C@@H]1C[C@]2(CC(c3cc(Cl)ccc3OC)=NO2)CN1C(=O)[C@@H](NC(=O)[C@H]1C[C@@H]1c1ccccc1)C(C)(C)C` [Compound 903], the Ki was less than 100 nM.

Take `CCC[C@H](NC(=O)[C@@H]1C[C@]2(CC(N3Cc4ccccc4C3)=NO2)CN1C(=O)[C@@H](NC(=O)OC1CCCC1)C(C)(C)C)C(=O)C(=O)NC1CC1` [Compound 904]: the Ki is less than 100 nM.

In the case of `CCC[C@H](NC(=O)C1C[C@]2(CC(c3cc(C)c(OC)c(C)c3)=NO2)CN1C(=O)[C@@H](NC(=O)[C@@H]1C[C@H]1c1c[nH]cn1)C(C)(C)C)C(=O)C(=O)NC1CC1` (stereo partly shown) [Compound 907], the Ki was in the range of 100 to 500 nM.

The same experiment, now with this note: read-out: Enzyme Assay 2 (HCV NS3 Peptide Cleavage Assay) activity; apparent Ki class.
In the case of `CNC(=O)C(=O)[C@H](CC1CC1)NC(=O)[C@@H]1C[C@]2(CC(c3cccc(Cl)c3)=NO2)CN1C(=O)[C@@H](NC(=O)CC1CC2CCC1C2)C(C)(C)C` (stereo partly shown) [Compound 777], the Ki was less than 100 nM.
